Results taken from publication PMC10145610, “In Vitro and In Silico Investigation of Polyacetylenes from Launaea capitata (Spreng.) Dandy as Potential COX-2, 5-LOX, and BchE Inhibitors” (Molecules, 2023).
Where two headings read alike, the source gives them in different places.

Tests used:
5-LOX [1] = molecular target: T1, 5-LOX (Homo sapiens, UniProt P09917); conditions: read-out: inhibitory activity against 5-LOX; cited from earlier work
T1 construct: purchased BioVision K980-100
T1 sequence (P09917 1-674): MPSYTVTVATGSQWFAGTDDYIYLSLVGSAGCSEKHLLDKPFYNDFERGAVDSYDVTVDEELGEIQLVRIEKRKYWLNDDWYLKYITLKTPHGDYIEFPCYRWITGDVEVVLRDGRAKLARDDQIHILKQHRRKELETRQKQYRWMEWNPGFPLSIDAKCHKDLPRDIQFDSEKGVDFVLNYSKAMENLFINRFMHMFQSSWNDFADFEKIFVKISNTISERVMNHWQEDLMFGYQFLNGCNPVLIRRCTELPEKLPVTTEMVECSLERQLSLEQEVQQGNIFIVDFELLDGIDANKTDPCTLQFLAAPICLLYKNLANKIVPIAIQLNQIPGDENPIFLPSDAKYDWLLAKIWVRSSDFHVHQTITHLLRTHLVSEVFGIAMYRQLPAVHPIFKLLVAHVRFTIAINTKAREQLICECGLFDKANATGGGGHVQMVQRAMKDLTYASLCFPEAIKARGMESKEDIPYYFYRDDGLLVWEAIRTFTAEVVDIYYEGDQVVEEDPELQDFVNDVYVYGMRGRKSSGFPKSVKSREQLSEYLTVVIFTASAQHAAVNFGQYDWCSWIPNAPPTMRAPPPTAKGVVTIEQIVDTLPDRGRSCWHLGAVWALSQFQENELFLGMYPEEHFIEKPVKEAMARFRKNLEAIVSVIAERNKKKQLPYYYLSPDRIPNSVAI

COX-1 = conditions: read-out: inhibitory activity against COX-1; cited from earlier work
COX-2 = molecular target: T2, COX-2 (Homo sapiens, UniProt P35354); experiment: COX-2 inhibition assay (fluorometric inhibitor screening kit); format: biochemical
T2 construct: purchased BioVision K547-100
T2 sequence (P35354 18-604): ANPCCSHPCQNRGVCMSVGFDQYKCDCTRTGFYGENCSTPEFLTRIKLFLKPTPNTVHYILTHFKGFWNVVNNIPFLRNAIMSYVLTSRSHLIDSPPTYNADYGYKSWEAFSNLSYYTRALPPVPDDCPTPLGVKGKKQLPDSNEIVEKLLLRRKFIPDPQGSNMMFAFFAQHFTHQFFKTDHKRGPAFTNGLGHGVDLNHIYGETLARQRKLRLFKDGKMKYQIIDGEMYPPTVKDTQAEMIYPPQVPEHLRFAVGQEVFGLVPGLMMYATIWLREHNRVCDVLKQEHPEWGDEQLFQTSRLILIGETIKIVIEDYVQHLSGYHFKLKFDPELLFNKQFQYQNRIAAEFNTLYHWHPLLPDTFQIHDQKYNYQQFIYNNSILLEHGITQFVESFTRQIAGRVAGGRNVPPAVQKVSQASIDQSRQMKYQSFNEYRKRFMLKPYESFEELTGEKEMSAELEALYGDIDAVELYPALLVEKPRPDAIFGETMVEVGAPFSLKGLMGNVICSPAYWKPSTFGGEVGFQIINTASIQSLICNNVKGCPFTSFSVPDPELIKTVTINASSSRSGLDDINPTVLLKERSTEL
Protocol: The fluorometric approach was used to measure the in vitro cyclooxygenase (COX-2) inhibitory activity. It was carried out in accordance with the COX-2 Inhibitor Screening Kit methodology, as advised by the manufacturer (CAT # K547-100, BioVision, Milpitas, CA, USA). The sample solutions were prepared in the manner described before providing twelve concentrations (ranging from […]).
(§1) The IC50 values were represented as means (± SD) from triplicates of two independent experiments.

[2] = molecular target: T3, horse serum butyrylcholinesterase (Equine BchE) (Equus caballus, UniProt P81908); experiment: BchE inhibition assay; format: biochemical
T3 construct: using horse serum butyrylcholinesterase (Equine BchE; CAS#9001-08-5); tissue CAS#9001-08-5; host or cells: horse serum
Protocol: The in vitro butyrylcholinesterase (BchE) inhibitory activity of the isolated polyacetylenes was determined according to the published method, using horse serum butyrylcholinesterase (Equine BchE; CAS#9001-08-5) with a slight change. To create a useful stock solution, the materials were dissolved in DMSO. The maximal DMSO concentration was 0.1%, and twelve sample concentrations (ranging from […]) were created by two-fold serial dilution in Tris buffer (pH 8.0).
as §1

5-LOX [3] = molecular target: T1, 5-LOX; experiment: 5-LOX inhibition assay (fluorometric inhibitor screening kit); format: biochemical
Protocol: The fluorometric approach was used to test the 5-LOX enzyme, in accordance with the manufacturer’s instructions, by using the enzyme’s inhibitor screening kit (CAT # K980-100, BioVision, Milpitas, CA, USA) to evaluate the 5-lipoxygenase (5-LOX) inhibitory activity in vitro [18, 45, 46]. Twelve concentrations (ranging from […]) were prepared by serial dilution method.
as §1

T3 sequence (P81908 whole entry): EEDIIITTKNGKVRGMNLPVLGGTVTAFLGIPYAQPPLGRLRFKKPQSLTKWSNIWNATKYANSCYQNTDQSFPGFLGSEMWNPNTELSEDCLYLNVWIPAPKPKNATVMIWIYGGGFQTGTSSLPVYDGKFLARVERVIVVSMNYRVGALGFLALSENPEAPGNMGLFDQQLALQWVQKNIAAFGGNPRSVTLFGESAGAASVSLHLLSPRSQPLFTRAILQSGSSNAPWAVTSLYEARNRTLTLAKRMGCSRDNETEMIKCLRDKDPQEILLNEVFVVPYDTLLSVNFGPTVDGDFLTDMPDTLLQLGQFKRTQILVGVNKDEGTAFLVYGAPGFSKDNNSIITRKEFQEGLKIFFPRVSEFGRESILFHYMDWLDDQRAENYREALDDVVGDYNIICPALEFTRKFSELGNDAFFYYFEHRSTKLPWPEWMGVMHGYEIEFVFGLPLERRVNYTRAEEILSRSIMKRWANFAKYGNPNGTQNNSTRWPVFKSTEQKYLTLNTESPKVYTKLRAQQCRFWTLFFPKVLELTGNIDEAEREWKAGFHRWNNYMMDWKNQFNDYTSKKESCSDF

SMILES	IC50 (5-LOX [1]) [µM]	IC50 (COX-1) [µM]	IC50 (COX-2) [µM]	IC50 against COX-2 (COX-2; in vitro, mean ± SD, triplicates of two independent experiments)	IC50 [2] [µM]	IC50 (5-LOX [3]) [µM]	IC50 (COX-2; in vitro, mean ± SD, triplicates of two independent experiments, read-out: IC50 against COX-2) [µM]
C/C=C/C#CC#C/C=C/C=C\CCOC(=O)/C=C/c1ccc(O)c(OC)c1 [(3Z,5E,11E)-tridecatriene-7,9-diynyl-1-O-(E)-ferulate]	3.4	1.1	–	–	–	–	–
C/C=C/C#CC#C/C=C/CC[C@H](O)CCO [Compound 2, (3S)-(6E,12E)-tetradecadiene-8,10-diyne-1,3-diol]	–	–	> 200	inactive	179 ± 15.6	> 200	–
C/C=C/C#CC#C/C=C/CC[C@@H](CCO)O[C@@H]1O[C@H](CO)[C@@H](O)[C@H](O)[C@H]1O [Compound 4, (3S)-(6E,12E)-tetradecadiene-8,10-diyne-1-ol-3-O-β-D-glucopyranoside]	–	–	146 ± 7.7	–	14.8 ± 1.55	34.6 ± 4.26	–
CC(Cc1ccc(O)c(O)c1)C(C)Cc1ccc(O)c(O)c1 (stereo not shown) [NDGA, nordihydroguaiaretic acid, reference compound]	–	–	–	–	–	–	4.7 ± 0.76
